Data: ChEMBL document CHEMBL4118067, “Isosteroidal alkaloids as potent dual-binding site inhibitors of both acetylcholinesterase and butyrylcholinesterase from the bulbs of Fritillaria walujewii” (Eur J Med Chem, 2017)
The source made the active and inactive calls. The calls are words filed in the database; no cut-off is given here.

Legend:
Acetylcholinesterase = Acetylcholinesterase (Electrophorus electricus, UniProt O42275); assay: Inhibition of electric eel AChE using acetylthiocholine iodide as substrate preincubated for 15 mins followed by substrate addition measured for 30 mins by Ellman's method
Acetylcholinesterase, sequence (O42275 whole entry): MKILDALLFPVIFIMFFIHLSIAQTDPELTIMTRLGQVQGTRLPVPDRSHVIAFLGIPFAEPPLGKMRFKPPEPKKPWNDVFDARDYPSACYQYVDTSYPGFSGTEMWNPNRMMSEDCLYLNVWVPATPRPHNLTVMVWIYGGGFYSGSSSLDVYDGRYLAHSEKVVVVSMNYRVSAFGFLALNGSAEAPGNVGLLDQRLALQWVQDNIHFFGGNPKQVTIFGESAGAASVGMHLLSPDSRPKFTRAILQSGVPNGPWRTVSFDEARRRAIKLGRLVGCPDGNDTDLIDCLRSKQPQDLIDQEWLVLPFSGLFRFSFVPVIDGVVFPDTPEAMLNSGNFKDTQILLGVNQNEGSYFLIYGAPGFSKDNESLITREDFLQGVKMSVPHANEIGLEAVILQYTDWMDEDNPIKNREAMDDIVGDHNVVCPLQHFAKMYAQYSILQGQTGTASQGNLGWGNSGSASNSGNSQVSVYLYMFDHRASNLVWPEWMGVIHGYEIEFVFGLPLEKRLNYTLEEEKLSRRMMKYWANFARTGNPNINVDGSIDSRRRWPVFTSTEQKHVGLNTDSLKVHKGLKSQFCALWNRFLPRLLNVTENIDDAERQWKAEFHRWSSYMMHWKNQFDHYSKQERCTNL

Cholinesterase = Cholinesterase (Equus caballus, UniProt P81908); assay: Inhibition of equine serum BChE using butyrylthiocholine iodide as substrate preincubated for 15 mins followed by substrate addition measured for 30 mins by Ellman's method
Cholinesterase, sequence (P81908 whole entry): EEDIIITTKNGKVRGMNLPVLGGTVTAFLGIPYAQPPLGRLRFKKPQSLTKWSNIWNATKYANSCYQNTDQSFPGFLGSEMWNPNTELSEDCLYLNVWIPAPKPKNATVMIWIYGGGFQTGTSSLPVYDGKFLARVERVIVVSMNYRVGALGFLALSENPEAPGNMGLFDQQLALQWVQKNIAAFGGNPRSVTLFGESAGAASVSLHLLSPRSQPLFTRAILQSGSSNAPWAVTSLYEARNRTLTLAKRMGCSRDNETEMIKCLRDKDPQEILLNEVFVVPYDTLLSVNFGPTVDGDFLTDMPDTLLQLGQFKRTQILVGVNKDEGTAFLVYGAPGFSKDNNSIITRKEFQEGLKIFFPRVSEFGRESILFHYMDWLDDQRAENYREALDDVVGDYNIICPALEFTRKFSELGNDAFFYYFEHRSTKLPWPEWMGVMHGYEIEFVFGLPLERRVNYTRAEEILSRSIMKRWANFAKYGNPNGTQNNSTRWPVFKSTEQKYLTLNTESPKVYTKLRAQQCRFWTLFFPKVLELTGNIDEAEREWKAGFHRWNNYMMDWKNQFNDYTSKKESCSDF

[1] = Selectivity index, ratio of IC50 for equine serum BChE to IC50 for electric eel AChE
[2] = target: Acetylcholinesterase (Electrophorus electricus) (UniProt O42275); assay: Reversible inhibition of electric eel AChE at 6 to 16 uM using acetylthiocholine iodide as substrate preincubated for 15 mins followed by substrate addition measured for 30 mins by Ellman's method
Acetylcholinesterase (Electrophorus electricus), sequence (O42275 24-633 limits assumed): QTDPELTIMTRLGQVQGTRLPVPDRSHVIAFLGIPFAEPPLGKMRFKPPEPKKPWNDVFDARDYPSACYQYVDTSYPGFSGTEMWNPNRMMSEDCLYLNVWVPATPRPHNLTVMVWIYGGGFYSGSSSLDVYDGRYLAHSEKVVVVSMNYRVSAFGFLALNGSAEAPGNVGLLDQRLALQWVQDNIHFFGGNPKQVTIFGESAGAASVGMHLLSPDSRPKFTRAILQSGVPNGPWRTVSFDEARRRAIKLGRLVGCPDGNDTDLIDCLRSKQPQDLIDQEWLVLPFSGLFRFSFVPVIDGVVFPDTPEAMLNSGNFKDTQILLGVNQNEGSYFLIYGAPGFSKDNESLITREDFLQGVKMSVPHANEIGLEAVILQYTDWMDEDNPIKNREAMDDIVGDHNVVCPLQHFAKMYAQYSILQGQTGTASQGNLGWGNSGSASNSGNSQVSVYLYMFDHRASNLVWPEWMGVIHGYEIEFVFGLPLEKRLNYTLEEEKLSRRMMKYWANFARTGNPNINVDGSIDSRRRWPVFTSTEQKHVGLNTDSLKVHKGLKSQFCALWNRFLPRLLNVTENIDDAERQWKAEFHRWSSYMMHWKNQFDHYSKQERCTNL

[3] = target: Acetylcholinesterase (Electrophorus electricus) (UniProt O42275); assay: Mixed-type inhibition of electric eel AChE at 6 to 24 uM using acetylthiocholine iodide as substrate preincubated for 15 mins followed by substrate addition measured for 30 mins by Lineweaver-Burk plot method
[4] = target: Acetylcholinesterase (Electrophorus electricus) (UniProt O42275); assay: Reversible inhibition of electric eel AChE at 2 to 10 uM using acetylthiocholine iodide as substrate preincubated for 15 mins followed by substrate addition measured for 30 mins by Ellman's method
[5] = target: Acetylcholinesterase (Electrophorus electricus) (UniProt O42275); assay: Mixed-type inhibition of electric eel AChE at 2 to 10 uM using acetylthiocholine iodide as substrate preincubated for 15 mins followed by substrate addition measured for 30 mins by Lineweaver-Burk plot method
[6] = target: Acetylcholinesterase (Electrophorus electricus) (UniProt O42275); assay: Reversible inhibition of electric eel AChE at 4 to 12 uM using acetylthiocholine iodide as substrate preincubated for 15 mins followed by substrate addition measured for 30 mins by Ellman's method
[7] = target: Acetylcholinesterase (Electrophorus electricus) (UniProt O42275); assay: Mixed-type inhibition of electric eel AChE at 4 to 20 uM using acetylthiocholine iodide as substrate preincubated for 15 mins followed by substrate addition measured for 30 mins by Lineweaver-Burk plot method
[8] = target: Acetylcholinesterase (Electrophorus electricus) (UniProt O42275); assay: Mixed-type inhibition of electric eel AChE at 4 to 16 uM using acetylthiocholine iodide as substrate preincubated for 15 mins followed by substrate addition measured for 30 mins by Lineweaver-Burk plot method
[9] = target: Acetylcholinesterase (Electrophorus electricus) (UniProt O42275); assay: Mixed-type inhibition of electric eel AChE at 7 to 28 uM using acetylthiocholine iodide as substrate preincubated for 15 mins followed by substrate addition measured for 30 mins by Lineweaver-Burk plot method
[10] = target: Acetylcholinesterase (Electrophorus electricus) (UniProt O42275); assay: Mixed-type inhibition of electric eel AChE at 8 to 32 uM using acetylthiocholine iodide as substrate preincubated for 15 mins followed by substrate addition measured for 30 mins by Lineweaver-Burk plot method

SMILES: C[C@H]1CC[C@@H]2N(C1)C[C@H]1[C@@H]3C[C@H]4[C@@H](CC(=O)[C@H]5C[C@@H](O)CC[C@@]54C)[C@@H]3CC[C@H]1[C@]2(C)O [IMPERIALINE]
- IC50 (Acetylcholinesterase): > 100 µM
- IC50 (Cholinesterase): > 100 µM

SMILES: C[C@H]1CC[C@H]2[C@H](C)[C@@H]3CC[C@@H]4[C@@H](C[C@H]5[C@H]4CC(=O)[C@H]4C[C@@H](O[C@@H]6O[C@H](CO)[C@@H](O[C@@H]7O[C@H](CO)[C@@H](O)[C@H](O)[C@H]7O)[C@H](O)[C@H]6O)CC[C@@]45C)[C@@H]3CN2C1
- IC50 (Acetylcholinesterase): 9.88 µM
- IC50 (Cholinesterase): 5.71 µM
- Ratio IC50 [1]: 0.58
- inhibition [2]: Active
- inhibition [3]: Active

SMILES: C[C@H]1CC[C@@H]2N(C1)C[C@H]1[C@@H]3C[C@H]4[C@@H](CC(=O)[C@H]5C[C@@H](O[C@@H]6O[C@H](CO)[C@@H](O)[C@H](O)[C@H]6O)CC[C@@]54C)[C@@H]3CC[C@H]1[C@]2(C)O
- IC50 (Acetylcholinesterase): > 100 µM
- IC50 (Cholinesterase): > 100 µM

SMILES: CC1=C2C[C@H]3[C@@H](CC(=O)[C@H]4C[C@@H](O)CC[C@@]43C)[C@@H]2CCC12O[C@@H]1C[C@H](C)CN[C@H]1[C@H]2C (stereo partly drawn)
- IC50 (Acetylcholinesterase): 94 µM
- IC50 (Cholinesterase): 153 µM
- Ratio IC50 [1]: 1.63

SMILES: C[C@H]1CC[C@H]2[C@H](C)[C@H]3CC[C@@H]4[C@@H](C[C@H]5[C@H]4C[C@@H](O)[C@H]4C[C@@H](O)CC[C@@]45C)[C@@H]3CN2C1
- IC50 (Acetylcholinesterase): 45.8 µM
- IC50 (Cholinesterase): 18.6 µM
- Ratio IC50 [1]: 0.41

SMILES: C[C@H]1CC[C@@H]2[C@@H](C)[C@@H]3CC[C@@H]4[C@@H](C[C@H]5[C@H]4C[C@@H](O)[C@H]4C[C@@H](O)CC[C@@]45C)[C@@H]3CN2C1
- IC50 (Acetylcholinesterase): 5.85 µM
- IC50 (Cholinesterase): 2.08 µM
- Ratio IC50 [1]: 0.36
- inhibition [4]: Active
- inhibition [5]: Active

SMILES: C[C@H]1CC[C@@H]2[C@@H](C)[C@@H]3CC[C@@H]4[C@@H](C[C@H]5[C@H]4C[C@H](O)[C@H]4C[C@@H](O[C@@H]6O[C@H](CO)[C@@H](O)[C@H](O)[C@H]6O)CC[C@@]45C)[C@@H]3CN2C1
- IC50 (Acetylcholinesterase): 51.5 µM
- IC50 (Cholinesterase): 13.5 µM
- Ratio IC50 [1]: 0.26

SMILES: C[C@H]1CC[C@H]2[C@H](C)[C@@H]3CC[C@@H]4[C@@H](C[C@H]5[C@H]4CC(=O)[C@H]4C[C@@H](O)CC[C@@]45C)[C@@H]3CN2C1
- IC50 (Acetylcholinesterase): 8.37 µM
- IC50 (Cholinesterase): 3.05 µM
- Ratio IC50 [1]: 0.36
- inhibition [6]: Active
- inhibition [7]: Active

SMILES: C[C@H]1CC[C@@H]2[C@@H](C)[C@@H]3CC[C@@H]4[C@@H](C[C@H]5[C@H]4C[C@@H](O)[C@H]4C[C@@H](O[C@@H]6O[C@H](CO)[C@@H](O)[C@H](O)[C@H]6O)CC[C@@]45C)[C@@H]3CN2C1
- IC50 (Acetylcholinesterase): 10.8 µM
- IC50 (Cholinesterase): 3.89 µM
- Ratio IC50 [1]: 0.36
- inhibition [2]: Active
- inhibition [3]: Active

SMILES: C[C@H]1CC[C@@H]2[C@@H](C)[C@@H]3CC[C@@H]4[C@@H](C[C@H]5[C@H]4C[C@H](O)[C@H]4C[C@@H](O)CC[C@@]45C)[C@@H]3CN2C1
- IC50 (Acetylcholinesterase): 7.19 µM
- IC50 (Cholinesterase): 2.58 µM
- Ratio IC50 [1]: 0.36
- inhibition [4]: Active
- inhibition [8]: Active

SMILES: C[C@H]1CC[C@H]2[C@H](C)[C@@H]3CC[C@@H]4[C@@H](C[C@H]5[C@H]4CC(=O)[C@H]4C[C@@H](O[C@@H]6O[C@H](CO)[C@@H](O)[C@H](O)[C@H]6O)CC[C@@]45C)[C@@H]3CN2C1
- IC50 (Acetylcholinesterase): 11.5 µM
- IC50 (Cholinesterase): 6.8 µM
- Ratio IC50 [1]: 0.59
- inhibition [2]: Active
- inhibition [9]: Active

SMILES: C=C1C2(CC[C@H]3[C@@H]4CC(=O)[C@H]5C[C@@H](O)CC[C@]5(C)[C@H]4C[C@@]13O)O[C@@H]1C[C@H](C)CN[C@H]1[C@H]2C (stereo partly drawn)
- IC50 (Acetylcholinesterase): 7.6 µM
- IC50 (Cholinesterase): 958 µM
- Ratio IC50 [1]: 126
- inhibition [4]: Active
- inhibition [10]: Active
